Source: ChEMBL document CHEMBL4024712, “Synthesis, stability and mechanistic studies of potent anticryptococcal hexapeptides” (Eur J Med Chem, 2017)
≈ marks a conversion by molar mass, not a printed value. Non-standard residues stand in square brackets, D forms with d. Residues, ends and D or L forms follow the SMILES beside them. His(τ-Bzl) = N[C@@H](Cc1cn(Cc2ccccc2)cn1)C(=O)O; Phe(4-NH2) = Nc1ccc(C[C@H](N)C(=O)O)cc1; Phe(4-Me) = Cc1ccc(C[C@H](N)C(=O)O)cc1; Cha = N[C@@H](CC1CCCCC1)C(=O)O; dOrn = NCCC[C@@H](N)C(=O)O; Orn = NCCC[C@H](N)C(=O)O; Dab = NCC[C@H](N)C(=O)O

Tests used:
Pseudomonas aeruginosa = assay: Anti-bacterial activity against Pseudomonas aeruginosa ATCC 27853 by CLSI method; assay type: functional
Staphylococcus aureus [1] = assay: Anti-bacterial activity against Staphylococcus aureus ATCC 29213 by CLSI method; assay type: functional
Candida albicans = assay: Antifungal activity against Candida albicans ATCC 90028 after 18 to 24 hrs by Alamar blue assay; assay type: functional
Nakaseomyces glabratus = assay: Antifungal activity against Candida glabrata ATCC 90030 after 18 to 24 hrs by Alamar blue assay; assay type: functional
Vero = assay: Cytotoxicity against African green monkey Vero cells up to 10 ug/ml after 48 hrs by neutral red dye based assay; assay type: cell-based; details: chlorocebus sabaeus
Cryptococcus neoformans [2] = assay: Antifungal activity against Cryptococcus neoformans ATCC 90113 after 68 to 72 hrs by Alamar blue assay; assay type: functional
Escherichia coli [3] = assay: Anti-bacterial activity against Escherichia coli ATCC 35218 by CLSI method; assay type: functional
Pichia kudriavzevii [4] = assay: Antifungal activity against Candida krusei ATCC 6258 after 18 to 24 hrs by Alamar blue assay; assay type: functional
Aspergillus fumigatus = assay: Antifungal activity against Aspergillus fumigatus ATCC 90906 after 68 to 72 hrs by Alamar blue assay; assay type: functional
Cryptococcus neoformans [5] = assay: Fungicidal activity against Cryptococcus neoformans ATCC 90113 after 68 to 72 hrs by Alamar blue assay; assay type: functional
Staphylococcus aureus [6] = assay: Anti-bacterial activity against methicillin-resistant Staphylococcus aureus ATCC 33591 by CLSI method; assay type: functional
[7] = tested on: Mycobacterium intracellulare; assay: Anti-bacterial activity against Mycobacterium intracellulare ATCC 23068 after 68 to 72 hrs by Alamar blue assay; assay type: functional, cell-based
Pichia kudriavzevii [8] = assay: Fungicidal activity against Candida krusei ATCC 6258 after 18 to 24 hrs by Alamar blue assay; assay type: functional
Escherichia coli [9] = assay: Bactericidal activity against Escherichia coli ATCC 35218 by CLSI method; assay type: functional
Staphylococcus aureus [10] = assay: Bactericidal activity against Staphylococcus aureus ATCC 29213 by CLSI method; assay type: functional
[11] = Staphylococcus aureus, ATCC 29213
[12] = Pichia kudriavzevii, ATCC 6258, read-out: IC50
[13] = Staphylococcus aureus, ATCC 29213, read-out: IC50
[14] = Escherichia coli, ATCC 35218, read-out: IC50
[15] = Staphylococcus aureus, ATCC 33591, read-out: IC50

Row | Compound | IC50 (Pseudomonas aeruginosa) | IC50 (Candida albicans) | IC50 (Nakaseomyces glabratus) | Activity (Vero) | MIC (Cryptococcus neoformans [2]) [µg/mL] | IC50 (Escherichia coli [3]) | IC50 (Pichia kudriavzevii [4]; [12]) [µg/mL] | IC50 (Aspergillus fumigatus) | IC50 (Cryptococcus neoformans [2]) [µg/mL] | MFC (Cryptococcus neoformans [5]) [µg/mL] | IC50 [7] | IC50 (Staphylococcus aureus [1]; [13]) [µg/mL] | IC50 (Escherichia coli [3]; [14]) [µg/mL] | IC50 (Staphylococcus aureus [6]; [15]) [µg/mL] | MFC (Pichia kudriavzevii [8]) [µg/mL] | MIC (Pichia kudriavzevii [4]; Pichia kudriavzevii, ATCC 6258) [µg/mL] | further results
1 | CC(C)C[C@@H](NC(=O)[C@H](CC1CCCCC1)NC(=O)[C@@H](Cc1c[nH]c2ccccc12)NC(=O)[C@@H](N)CCCN)C(=O)N[C@H](Cc1ccccc1)C(=O)N[C@@H](Cc1cn(Cc2ccccc2)cn1)C(N)=O (H-[Orn][dW][Cha][dL][dF][His(τ-Bzl)]-NH2) | Not Active | Not Active | Not Active | Non-Toxic | 2.5 (≈ 2.61 µM) | Not Active | 20 (≈ 20.9 µM) | Not Active |  |  |  |  |  |  |  |  | MIC (Staphylococcus aureus [1]; [11]): 20 µg/mL (≈ 20.9 µM)
2 | Cc1ccc(C[C@H](NC(=O)[C@@H](Cc2ccccc2)NC(=O)[C@@H](Cc2c[nH]c3ccccc23)NC(=O)[C@@H](N)CCCN)C(=O)N[C@H](Cc2ccccc2)C(=O)N[C@@H](Cc2c[nH]cn2)C(N)=O)cc1 (H-[Orn][dW][dF][Phe(4-Me)][dF]H-NH2) | Not Active | Not Active | Not Active | Non-Toxic | 1.25 (≈ 1.37 µM) | Not Active |  | Not Active | 0.8 (≈ 0.879 µM) | 1.25 (≈ 1.37 µM) | Not Active |  |  |  |  |  | IC50 (Staphylococcus aureus [1]): Not Active; IC50 (Pichia kudriavzevii [4]): Not Active; IC50 (Staphylococcus aureus [6]): Not Active
3 | Cc1ccc(C[C@H](NC(=O)[C@@H](Cc2ccccc2)NC(=O)[C@@H](Cc2c[nH]c3ccccc23)NC(=O)[C@@H](N)CCCN)C(=O)N[C@H](Cc2ccccc2)C(=O)N[C@@H](CCN)C(N)=O)cc1 (H-[Orn][dW][dF][Phe(4-Me)][dF][Dab]-NH2) [listing 1 of 2 here] | Not Active | Not Active | Not Active | Non-Toxic |  |  | 14.8 (≈ 16.9 µM) | Not Active | 0.8 (≈ 0.916 µM) |  | Not Active | 16.1 (≈ 18.4 µM) | 6 (≈ 6.87 µM) | > 20 |  |  | 
4 | Cc1ccc(C[C@H](NC(=O)[C@@H](Cc2ccccc2)NC(=O)[C@@H](Cc2c[nH]c3ccccc23)NC(=O)[C@@H](N)CCCN)C(=O)N[C@H](Cc2ccccc2)C(=O)N[C@@H](CCN)C(N)=O)cc1 (H-[Orn][dW][dF][Phe(4-Me)][dF][Dab]-NH2) [listing 2 of 2 here] |  |  |  |  | 1.25 (≈ 1.43 µM) |  |  |  |  | 1.25 (≈ 1.43 µM) |  |  |  |  | 20 (≈ 22.9 µM) | 20 (≈ 22.9 µM) | 
5 | Cc1ccc(C[C@H](NC(=O)[C@@H](Cc2ccccc2)NC(=O)[C@@H](Cc2c[nH]c3ccccc23)NC(=O)[C@@H](N)CCCN)C(=O)N[C@H](Cc2ccccc2)C(=O)N[C@H](Cc2c[nH]cn2)C(N)=O)cc1 (H-[Orn][dW][dF][Phe(4-Me)][dF][dH]-NH2) | Not Active | Not Active | Not Active | Non-Toxic | 1.25 (≈ 1.37 µM) |  | 5.16 (≈ 5.67 µM) | Not Active | 0.8 (≈ 0.879 µM) | 1.25 (≈ 1.37 µM) | Not Active | 18 (≈ 19.8 µM) | 12.7 (≈ 14 µM) | > 20 | 10 (≈ 11 µM) | 10 (≈ 11 µM) | 
6 | Cc1ccc(C[C@H](NC(=O)[C@@H](Cc2ccccc2)NC(=O)[C@@H](Cc2c[nH]c3ccccc23)NC(=O)[C@@H](N)CCCN)C(=O)N[C@H](Cc2ccccc2)C(=O)N[C@H](CCCN)C(N)=O)cc1 (H-[Orn][dW][dF][Phe(4-Me)][dF][dOrn]-NH2) | Not Active | Not Active | Not Active | Non-Toxic | 1.25 (≈ 1.41 µM) |  | 9.7 (≈ 10.9 µM) | Not Active | 0.67 (≈ 0.755 µM) | 1.25 (≈ 1.41 µM) | Not Active | > 20 | > 20 | > 20 | 20 (≈ 22.5 µM) | 20 (≈ 22.5 µM) | 
7 | Cc1ccc(C[C@H](NC(=O)[C@@H](Cc2ccccc2)NC(=O)[C@@H](Cc2c[nH]c3ccccc23)NC(=O)[C@@H](N)CCCN)C(=O)N[C@H](Cc2ccccc2)C(=O)N[C@H](CCCNC(=N)N)C(N)=O)cc1 (H-[Orn][dW][dF][Phe(4-Me)][dF][dR]-NH2) |  | Not Active | Not Active | Non-Toxic | 1.25 (≈ 1.35 µM) |  | 14 (≈ 15 µM) | Not Active | 0.83 (≈ 0.893 µM) | 1.25 (≈ 1.35 µM) | Not Active | 13.5 (≈ 14.5 µM) | 4.8 (≈ 5.17 µM) | > 20 | 20 (≈ 21.5 µM) | 20 (≈ 21.5 µM) | IC50 (Pseudomonas aeruginosa; Pseudomonas aeruginosa, ATCC 27853, read-out: IC50): 15.7 µg/mL (≈ 16.9 µM); MBC (Escherichia coli [9]): 20 µg/mL (≈ 21.5 µM); MIC (Staphylococcus aureus [1]; [11]): 20 µg/mL (≈ 21.5 µM); MBC (Staphylococcus aureus [10]): 20 µg/mL (≈ 21.5 µM); MIC (Escherichia coli [3]; Escherichia coli, ATCC 35218): 10 µg/mL (≈ 10.8 µM)
8 | Cc1ccc(C[C@H](NC(=O)[C@@H](Cc2ccccc2)NC(=O)[C@@H](Cc2c[nH]c3ccccc23)NC(=O)[C@@H](N)Cc2ccc(N)cc2)C(=O)N[C@H](Cc2ccccc2)C(=O)N[C@@H](Cc2cn(Cc3ccccc3)cn2)C(N)=O)cc1 (H-[Phe(4-NH2)][dW][dF][Phe(4-Me)][dF][His(τ-Bzl)]-NH2) | Not Active | Not Active | Not Active | Non-Toxic |  | Not Active |  | Not Active |  | 5 (≈ 4.77 µM) | Not Active |  |  |  |  |  | MBC (Staphylococcus aureus [10]): 20 µg/mL (≈ 19.1 µM); IC50 (Pichia kudriavzevii [4]): Not Active; IC50 (Staphylococcus aureus [6]): Not Active
